In US11426372B2, “Glycolic acid protects against ischemic insults” (priority 2015, dated 2022):
“Also recorded” adds a separate entry of the source.

What was measured:
[1] = estimated; cited from earlier work
primary cortical neurons = assay: In vitro model of stroke: nuclear size (apoptotic nuclei) of cortical neurons 24 hours after ischemia; format: cell-based, mouse; conditions: for number of apoptotic neurons (nuclear size <30 μm2): vs non-treated neurons during ischemia
Procedure: (§1) In order to mimic neuronal ischemia in vitro, primary cortical neurons were culture in vitro for 6 days. After this time either a total ischemia or a partial ischemia were performed.
(§2) Total ischemia: on the day of ischemia medium was changed to PBS (pH=6.5) that had been previously bubbled with N2 to remove all O2. In the case of total ischemia, in order to ensure total lack of oxygen in the PBS, dithionite was added to the PBS to capture the remaining diluted O2. This process ensured the absence of both nutrients and O2 as it would be expected at the core of a stroke.
(§3) Penumbra: to mimic penumbra, normal medium was changed to a mixture of medium without antioxidants and PBS (50:50) and bubbled with N2 to remove diluted O2.
(§4) In both protocols neurons were then placed inside a gas chamber filled with N2 and left there for 45 minutes (ischemia) or 1 hour (penumbra). In order to mimic reperfusion, PBS or medium/PBS were then substituted with medium without antioxidants and left in the incubator overnight.
(§5) Normoxia: to mimic normoxia, normal medium was changed with normal medium without antioxidants and placed in the incubator under normal conditions for 45 minutes or 1 hour. Then medium was exchanged again with normal medium and left overnight in the incubator.
(§6) In all conditions neurons were fixed and stained with DRAQS (a nuclear marker) and NeuN (a neuronal marker) on the next day. Images were taking with an OPERA microscope and analysed with the help of FIJI Image analysis software. The more reliable outcome parameter to detect apoptosis was the surface of the nuclei in μm2 and the number of neurons alive after 24 hours. As it can be observed in FIGS. 1 and 2, the frequency distribution of nuclear sizes dramatically changed between normoxia and ischemia without treatment.

mouse cortical neurons [2] = assay: In vitro model of stroke: number of cortical neurons alive / survival rate 24 hours after ischemia; format: cell-based; conditions: for survival rate of mouse cortical neurons 24 hours after ischemic insult: 45 minutes ischemic insult, P<0.05; for number of cortical neurons alive / survival rate 24 hours after ischemia: penumbra like conditions, 60 minutes ischemic insult, P<0.001
Procedure: as §1, §2, §3, §4, §5, §6

mouse cortical neurons [3] = assay: In vitro model of stroke: LDH released to the media (PIERCE LDH cytotoxicity assay); format: cell-based; conditions: for concentration of LDH in the media 24 hours after the ischemic insult: 45 minutes ischemic insult, vs ischemic non-treated neurons, p<0.05
Procedure: as §1, §2, §3, §4, §5
Additionally, the amount of LDH released to the media was determined. LDH is released to the media during necrosis (immediate cell death after an insult, 0-6 hours after insult) and in the late stages of apoptosis in vitro (6 to 24 hours after insult) through the disruption of the plasmatic membrane. For this we used the PIERCE LDH CYTOTOXICITY ASSAY from Life Technologies.

Mice [4] = assay: Transient filament MCA occlusion model (fMCAo) with infarct volumetry; format: in vivo, mouse
Source text: Transient filament MCA occlusion model (fMCAo): Mice are anaesthetized with isoflurane delivered in a mixture of 30% O2 and 70% N2O. An incision is made between the ear and the eye in order to expose the temporal bone. A laser Doppler probe is affixed to the skull above the MCA territory, and mice are placed in the supine position. An incision is made in the midline neck region, and the common carotid artery and left external carotid artery are isolated and ligated; a 2-mm silicon-coated filament (Doccol, #701912PKRe) is inserted into the internal carotid artery, and MCA occlusion is confirmed by a corresponding decrease in blood flow (i.e., a decrease in the laser Doppler flow signal). After 60 minutes of occlusion the filament is removed and either the vehicle, or 5, 10, 20 or 40 mM of GA (concentration for the total expected infact area) is injected. […]
Infarct volumetry: Brains are removed 24 and 72 hours after stroke induction and frozen on powdered dry ice. […] Infarct area is measured in each section using ImageJ software (NIH). In the fMCAo model, an edema correction for infarct volume is calculated using the following formula: (Ischemic area)=(Direct lesion volume)−[(Ipsilateral hemisphere)−(Contralateral hemisphere)] was performed. The total infarct volume is calculated by integrating the measured areas and intervals between the sections.

mouse hearts = assay: Ischaemia-reperfusion in perfused hearts (Langendorff); conditions: 60 min global ischaemia, 60 min reperfusion with 5, 10, 20 or 40 mM glycolic acid
Procedure: Ischaemia-reperfusion in perfused hearts: Ischemia reperfusion in perfused hearts is performed. After sodium pentobarbital overdose (150 mg/kg i. p.), mouse hearts are quickly excised and perfused through the aorta in a Langendorff apparatus with a modified Krebs-Henseleit bicarbonate buffer (in mmol/l: 140 NaCl, 24 NaHCO3, 2.7 KCl, 0.4 KH2PO4, 1 MgSO4, 1.8 CaCl2 and 11 glucose, 95% O2-5% CO2 at 37° C.) at constant flow perfusion pressure of 80 mmHg. Left ventricular (LV) pressure is monitored with a water-filled latex balloon inserted into the LV and inflated to obtain an end-diastolic pressure (LVEDP) of 6-8 mmHg. LV developed pressure (LVdevP) is calculated as the difference between LV systolic pressure and LVEDP. After 30 minutes (min) of normoxic perfusion, mouse hearts are subjected to 60 min of normothermic global ischaemia followed by 60 min of reperfusion with vehicle or 5, 10, 20 or 40 mM glycolic acid. Lactate dehydrogenase (LDH) activity is spectrophotometrically measured in samples collected from the coronary effluent at different times throughout the perfusion period and was considered an indirect measure of necrosis. After 60 min of reperfusion, heart slices were incubated in […] to outline the area of necrosis. Hearts submitted to normoxic perfusion during 120 min served as time control series. […]

cardiomyocytes = assay: Ischaemia-reperfusion in isolated cardiomyocytes; format: cell-based, mouse; conditions: simulated ischaemia-reperfusion
Procedure: Ischaemia-reperfusion in isolated cardiomyocytes: Freshly isolated cardiomyocytes are obtained from mouse hearts by retrograde collagenase perfusion. Rhod-shaped calcium tolerant cardiomyocytes are selected by differential centrifugation and albumin gradient and are plated on laminin-coated glass bottom coverslips (for confocal studies) or on 4% fetal calf serum pretreated multiwell dishes. To simulate IR in cardiomyocytes, two independent approaches are used: anoxic workstation under controlled atmosphere of 0% 02-5% H2 at 37° C. (Invivo2 Workstation Ruskinn, Bridgend, UK) and microscope-adapted microperfusion chamber (RC-43C/BS4 64-0371 Harvard Apparatus, Holliston, Mass., USA). For the anoxic workstation, cardiomyocytes are plated in 96-wells dishes, placed within the anoxic atmosphere and incubated for 15 min with glucose-free acidic ischaemic buffer (previously deoxygenated in an autoclave and bubbled with N2 for 20 min) containing (in mmol/l): 140 NaCl, 3.6 KCl, 1.2 MgSO4, 1 CaCl2, 20 HEPES, pH 6.4, and supplemented with 4 μmol/l resazurin, 100 μmol/l ascorbic acid, 0.5 mmol/l dithionite and 100 U/ml superoxide dismutase. For reperfusion, ischaemic buffer is washed out and oxygenated, glucose-containing control buffer (pH 7.4) is added for 10 min. […]

Mice [5] = assay: In vivo model of limb ischemia (unilateral femoral ligatures); design: species or system mouse; conditions: injected systemically when ligatures are removed or before ligation
Procedure: In vivo model of limb ischemia: Mice are submitted to unilateral femoral ligatures for a few hours (4-5) to a few days. Glycolic acid or vehicle are injected systemically when the ligatures are removed. Alternatively, glycolic acid is given before ligation systemically. Ischemia is confirmed by clinical scores (tissue and functional damages by gait analysis) and methoxyisobutylisonitrile (MIBI) scintigraphies at different days 0, 4, 6, 10, 20, and 30. Histological analysis is also performed to determine the extension of the ischemia.

Rabbits = assay: Model of intestinal ischemia (mesenteric ligation); format: in vivo, rabbit; conditions: injected intraarterially upon removal of the ligation or systemically before ligation
Procedure: Rabbits are anesthetized with 3% barbital, 30-35 mg/intravenous injections. The small intestine is reflected to the left of the abdominal incision and then the SMA and SMV are identified. Mesenteric ischemia is confirmed when the mesenteric pulsation is lost and the intestine becomes pale. Ligation is maintained for 2, 4 and 6 hours. […] After removing the ligation, the animal is led free for 1 and 3 days and then is intracardially perfused. Intestinal samples are embedded in paraffin and sections are stained with a nuclear staining. Nuclear size distribution is analysed in different ischemic areas and compared to that of non-ischemic areas.

SMILES: OCCOCCO [diethylene glycol]
- minimum toxic dose [1]: 0.14 mg glycolic acid per kg of body weight

SMILES: O=C(O)CO [glycolic acid, 2-hydroxyethanoic acid]
- more normal size nuclei (nuclear surface >30 μm2) 24 hours after ischemia (primary cortical neurons; 5 mM pretreatment or 10 and 20 mM during reperfusion, vs control neurons that underwent ischemia without treatment): up to 65%
- number of apoptotic neurons (nuclear size <30 μm2) (primary cortical neurons; 10 mM during reperfusion, p<0.01): reduces the number of apoptotic neurons
- shift of the nuclear size to smaller apoptotic nuclei induced by ischemia (primary cortical neurons; 10 mM glycolic acid during reperfusion): partially reversed
- number of apoptotic neurons (nuclear size <30 μm2) (primary cortical neurons; 20 mM during reperfusion, p<0.01): reduces the number of apoptotic neurons
- shift of the nuclear size to smaller apoptotic nuclei induced by ischemia (primary cortical neurons; 20 mM glycolic acid during reperfusion): partially reversed
- shift of the nuclear size to smaller apoptotic nuclei induced by ischemia (primary cortical neurons; 4 days pretreatment with 5 mM glycolic acid): partially reversed
- protective effect (rescue) (primary cortical neurons; penumbra conditions): 100%
- number of apoptotic neurons (nuclear size <30 μm2) (primary cortical neurons; pre-treatment with 5 mM, p<0.05): reduces the number of apoptotic neurons
- shift of the nuclear size to smaller apoptotic nuclei induced by ischemia (primary cortical neurons; pretreatment with 2.5 mM glycolic acid): partially reversed
- survival rate of mouse cortical neurons 24 hours after ischemic insult (mouse cortical neurons [2]; 2.5 mM during reperfusion): increases the survival rate
- survival rate of mouse cortical neurons 24 hours after ischemic insult (mouse cortical neurons [2]; 5 mM during reperfusion): increases the survival rate
- survival rate of mouse cortical neurons 24 hours after ischemic insult (mouse cortical neurons [2]; 5 mM during reperfusion, listed as GA): enough to rescue the effect of the ischemia
- number of cortical neurons alive / survival rate 24 hours after ischemia (mouse cortical neurons [2]; 10 mM during reperfusion): increased cortical neurons survival; also recorded: increases the survival rate
- number of cortical neurons alive / survival rate 24 hours after ischemia (mouse cortical neurons [2]; 20 mM during reperfusion): increases the survival rate
- survival of mouse cortical neurons (mouse cortical neurons [2]; concentrations lower than 5 mM given during reperfusion (data not shown)): did not increase survival
- neuronal cell death / protection against ischemia, 24 hours after ischemia (mouse cortical neurons [2]; mouse cortical neurons, vs non-treated neurons undergoing ischemia, applied before ischemia or during reperfusion): protects neurons from ischemia; also recorded: significantly decreases neuronal cell death; also recorded: protects against different degrees of ischemia both when applied before or after the acute ischemic insult
- protection of neurons in normoxia conditions (mouse cortical neurons [2]; pretreatment with 2.5 mM): protects neurons against the adverse conditions inherent to an in vitro setting
- protection of neurons in normoxia conditions (mouse cortical neurons [2]; pretreatment with 5 mM): protects neurons against the adverse conditions inherent to an in vitro setting
- concentration of LDH in the media 24 hours after the ischemic insult (mouse cortical neurons [3]; 2.5 mM during reperfusion): decrease the concentration of LDH significantly; also recorded: reduces apoptosis
- concentration of LDH in the media 24 hours after the ischemic insult (mouse cortical neurons [3]; 5 mM during reperfusion): decrease the concentration of LDH significantly; also recorded: reduces apoptosis
- concentration of LDH in the media (mouse cortical neurons [3]; concentrations lower than 5 mM given during reperfusion): decreased the concentration of LDH in the media
- effect on LDH levels in normoxia (mouse cortical neurons [3]; normoxic conditions, 2.5 and 5 mM): did not observe any difference between treatments; also recorded: cannot be observed
- decrease in blood flow (Mice [4]; 5, 10, 20 or 40 mM GA injected after 60 minutes of occlusion): less severe decrease in blood flow
- infarct volume (Mice [4]; brains removed 24 and 72 hours after stroke induction): reduce the infarct volume size
- necrosis (LDH activity, area of necrosis) (mouse hearts): reduced necrosis compared to controls
- number of cardiomyocytes alive 24 hours after ischemia (cardiomyocytes): increased number of cardiomyocytes alive
- extension of the ischemia and cell death (Mice [5]): reduce the extension of the ischemia and cell death
- number of apoptotic nuclei and ischemic areas (Rabbits): reduce the number of apoptotic nuclei and the ischemic areas
